Assays:
[1] = Determination of the microsomal half-life / microsomal clearance (human); type: in vitro ADME; details: pH 7.4; human liver microsomes, 0.5 μM test substance, 0.25 mg microsomal protein/ml; read-out: Human Mikrosomal Clearance
Protocol: The metabolic stability of a compound can be determined, for example, by incubating a solution of this compound with liver microsomes from particular species (for example rat, dog or human) and determining the half-life of the compound under these conditions (RS Obach, Curr Opin Drug Discov Devel. 2001, 4, 36-44). It is possible to conclude from an observed larger half-life that the metabolic stability of the compound is improved. The stability in the presence of human liver microsomes is of particular interest since it makes it possible to predict the metabolic degradation of the compound in the human liver. Compounds with increased metabolic stability (determined in the liver microsome test) are therefore probably also degraded more slowly in the liver. The slower metabolic degradation in the liver can lead to higher and/or longer-lasting concentrations (effective levels) of the compound in the body, so that the elimination half-life of the compounds according to the invention is increased. Increased and/or longer-lasting effective levels may lead to a better efficacy of the compound in the treatment or prophylaxis of various vasopressin-dependent diseases. An improved metabolic stability may additionally lead to an increased bioavailability after oral administration, because the compound is subjected, after being absorbed in the intestine, to less metabolic degradation in the liver (so-called first pass effect). An increased oral bioavailability may, because the concentration (effective level) of the compound is increased, lead to a better efficacy of the compound after oral administration.
Determination of the Microsomal Half-Life:
The metabolic stability of the compounds of the invention was determined in the following assay.
The test substances are incubated in a concentration of 0.5 μM as follows:
0.5 μM test substance is preincubated together with liver microsomes of various species (rat, human or other species) (0.25 mg of microsomal protein/ml) in 0.05M potassium phosphate buffer pH 7.4 in microtitre plates at 37° C. for 5 min. The reaction is started by adding NADPH (1 mg/ml). 50 μl aliquots are taken after 0, 5, 10, 15, 20 and 30 min, and the reaction is stopped immediately with the same volume of acetonitrile and cooled down. The samples are frozen until analyzed. Using MSMS, the remaining concentration of undegraded test substance is determined. From the […] of the test substance signal/time unit curve, the half-life (T½) is determined, where the half-life of the test substance can be calculated, assuming first order kinetics, from the decrease in the concentration of the compound with time. The microsomal clearance (mCl) is calculated as mCl=In2/T½/(content of microsomal protein in mg/ml)×1000 [ml/min/mg] (modified according to the literature references: Di, The Society for Biomoleculaur Screening, 2003, 453-462; Obach, DMD, 1999 vol 27. N 11, 1350-1359).

[2] = molecular target: T1, human vasopressin V1b receptor (Homo sapiens, UniProt P47901); experiment: Vasopressin V1b receptor binding assay; details: displacement of 3H-AVP, membranes of CHO-K1 cells with human V1b receptor
T1 construct: expressed in transfected cells; host or cells: CHO-K1 (cell line hV1b-3H2_CHO), membrane preparation
T1 sequence (P47901 1-424): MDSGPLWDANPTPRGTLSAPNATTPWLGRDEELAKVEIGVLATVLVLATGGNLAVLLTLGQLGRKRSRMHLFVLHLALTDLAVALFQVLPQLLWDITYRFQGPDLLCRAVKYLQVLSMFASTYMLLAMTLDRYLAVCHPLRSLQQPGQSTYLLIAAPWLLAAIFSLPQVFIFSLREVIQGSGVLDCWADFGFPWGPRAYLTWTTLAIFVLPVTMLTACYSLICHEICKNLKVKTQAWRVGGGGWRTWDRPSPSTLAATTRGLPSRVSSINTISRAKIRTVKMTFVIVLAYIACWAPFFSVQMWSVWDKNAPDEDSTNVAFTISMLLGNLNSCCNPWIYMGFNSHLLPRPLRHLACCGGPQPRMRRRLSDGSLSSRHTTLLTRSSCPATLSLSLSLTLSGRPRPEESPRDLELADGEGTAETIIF
Protocol: Methods for Determining the Biological Activity Vasopressin V1b Receptor Binding Assay: Substances:
This series of DMSO predilutions was diluted 1:10 with assay buffer. The substance concentration was again diluted 1:5 in the assay mixture (2% DMSO in the mixture).
All determinations were carried out as triplicate determinations.

[3] = molecular target: T2, recombinant human oxytocin receptors (Homo sapiens, UniProt P30559); experiment: Oxytocin receptor binding assay; details: selectivity for V1b over oxytocin receptor, quotient of Ki values
T2 construct: expressed in transfected cells; host or cells: HEK-293, transient expression; lysed and homogenized cells
T2 sequence (P30559 1-389): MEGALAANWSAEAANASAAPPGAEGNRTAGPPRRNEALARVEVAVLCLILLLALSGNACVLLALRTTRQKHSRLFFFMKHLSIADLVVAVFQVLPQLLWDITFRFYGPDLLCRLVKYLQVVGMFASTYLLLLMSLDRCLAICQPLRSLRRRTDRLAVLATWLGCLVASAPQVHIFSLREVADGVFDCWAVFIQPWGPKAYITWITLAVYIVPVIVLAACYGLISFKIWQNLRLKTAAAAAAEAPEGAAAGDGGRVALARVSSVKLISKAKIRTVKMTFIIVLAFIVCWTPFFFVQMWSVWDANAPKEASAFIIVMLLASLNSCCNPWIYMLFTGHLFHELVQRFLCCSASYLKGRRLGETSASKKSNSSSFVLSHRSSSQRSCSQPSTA
Protocol: Oxytocin Receptor Binding Assay
Confluent HEK-293 cells with transiently expressing recombinant human oxytocin receptors were centrifuged at 750×g and at room temperature for 5 minutes. The residue was taken up in ice-cold lysis buffer (50 mM Tris-HCl, 10% glycerol, pH 7.4 and Roche Complete Protease Inhibitor) and subjected to an osmotic shock at 4° C. for 20 minutes. The lyzed cells were then centrifuged at 750×g and at 4° C. for 20 minutes, the residue was taken up in incubation buffer, and aliquots of 10^7 cells/ml were prepared. The aliquots were frozen at −80° C. until used.
On the day of the experiment, the cells were thawed, diluted with incubation buffer and homogenized using a Multipette Combitip (Eppendorf, Hamburg). […] The nonspecific binding was determined with 10^−6 M oxytocin (Bachem AG, H2510). Determinations in triplicate were set up. Bound and free radioligand were separated by filtration under vacuum with Whatman GF/B glass fibre filters using a Skatron cell harvester 7000. The bound radioactivity was determined by liquid scintillation measurement in a Tricarb beta counter, model 2000 or 2200CA (Packard).

[4] = molecular target: human vasopressin V1a receptor (Homo sapiens, UniProt P37288); experiment: Vasopressin V1a receptor binding assay; details: selectivity for V1b over V1a, quotient of Ki values
Sequence of human vasopressin V1a receptor (P37288 whole entry): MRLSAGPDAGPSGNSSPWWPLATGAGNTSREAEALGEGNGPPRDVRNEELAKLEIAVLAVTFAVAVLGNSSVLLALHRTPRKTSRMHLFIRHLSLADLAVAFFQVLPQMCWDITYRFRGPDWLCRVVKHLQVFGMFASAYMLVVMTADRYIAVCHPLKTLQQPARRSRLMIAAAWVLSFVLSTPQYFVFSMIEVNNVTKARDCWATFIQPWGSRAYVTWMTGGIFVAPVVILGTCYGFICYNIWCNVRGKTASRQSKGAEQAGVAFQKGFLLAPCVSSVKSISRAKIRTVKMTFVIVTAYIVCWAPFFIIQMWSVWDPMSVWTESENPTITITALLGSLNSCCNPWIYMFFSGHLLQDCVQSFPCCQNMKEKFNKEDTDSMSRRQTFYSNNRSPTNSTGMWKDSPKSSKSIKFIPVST

Compound: CCOc1ncccc1C1(NC(=O)N2CCC(N3CCNCC3)CC2)C(=O)N(S(=O)(=O)c2ccc(OC)cc2OC)c2ccc(C#N)cc21 (racemic) [Example 55, N-[5-Cyano-1-[(2,4-dimethoxyphenyl)sulphonyl]-3-(2-ethoxypyridin-3-yl)-2-oxo-2,3-dihydro-1H-indol-3-yl]-4-piperazin-1-ylpiperidine-1-carboxamide]
- microsomal CLint at 0.5 μM [1]: 60 to 120 µL/min/mg
- Ki [2]: < 0.01 µM
- Ki(h-OT)/Ki(h-V1b) [3]: ++ (>25-50)
- Ki(h-V1a)/Ki(h-V1b) [4]: +++ (>100)

Compound: CCOc1ncccc1C1(NC(=O)N2CCC(C3CCNCC3)CC2)C(=O)N(S(=O)(=O)c2ccc(OC)cc2OC)c2ccc(C#N)cc21.O=C(O)C(F)(F)F.O=C(O)C(F)(F)F (racemic) [Example 85, N-[5-Cyano-1-[(2,4-dimethoxyphenyl)sulphonyl]-3-(2-ethoxypyridin-3-yl)-2-oxo-2,3-dihydro-1H-indol-3-yl]-4,4′-bipiperidine-1-carboxamide bis(trifluoroacetate)]
- microsomal CLint at 0.5 μM [1]: 60 to 120 µL/min/mg
- Ki [2]: < 0.01 µM
- Ki(h-OT)/Ki(h-V1b) [3]: ++ (>25-50)
- Ki(h-V1a)/Ki(h-V1b) [4]: +++ (>100)

Compound: CCOc1ncccc1C1(NC(=O)N2CCN(C3CCN(CC)CC3)CC2)C(=O)N(S(=O)(=O)c2ccc(OC)cc2OC)c2ccc(C#N)cc21.O=C(O)C(F)(F)F (single isomer, unassigned) [Example 7B, (−)-N-[5-Cyano-1-[(2,4-dimethoxyphenyl)sulphonyl]-3-(2-ethoxypyridin-3-yl)-2-oxo-2,3-dihydro-1H-indol-3-yl]-4-(1-ethylpiperidin-4-yl)piperazine-1-carboxamide trifluoroacetate]
- microsomal CLint at 0.5 μM [1]: < 60 µL/min/mg
- Ki [2]: < 0.01 µM
- Ki(h-OT)/Ki(h-V1b) [3]: +++ (>50)
- Ki(h-V1a)/Ki(h-V1b) [4]: +++ (>100)

Compound: CCOc1ncccc1C1(NC(=O)N2CCC(N3CCN(C)CC3)CC2)C(=O)N(S(=O)(=O)c2ccc(OC)cc2OC)c2ccc(C#N)cc21 (single isomer, unassigned) [Example 31B, (−)-N-[5-Cyano-1-[(2,4-dimethoxyphenyl)sulphonyl]-3-(2-ethoxypyridin-3-yl)-2-oxo-2,3-dihydro-1H-indol-3-yl]-4-(4-methylpiperazin-1-yl)piperidine-1-carboxamide]
- microsomal CLint at 0.5 μM [1]: < 60 µL/min/mg
- Ki [2]: < 0.01 µM
- Ki(h-OT)/Ki(h-V1b) [3]: +++ (>50)
- Ki(h-V1a)/Ki(h-V1b) [4]: +++ (>100)

Compound: CCOc1ncccc1C1(NC(=O)N2CCC(N3CCN(CC)CC3)CC2)C(=O)N(S(=O)(=O)c2ccc(OC)cc2OC)c2ccc(C#N)cc21 (single isomer, unassigned) [Example 37B, (−)-N-[5-Cyano-1-[(2,4-dimethoxyphenyl)sulphonyl]-3-(2-ethoxypyridin-3-yl)-2-oxo-2,3-dihydro-1H-indol-3-yl]-4-(4-ethylpiperazin-1-yl)piperidine-1-carboxamide]
- microsomal CLint at 0.5 μM [1]: < 60 µL/min/mg
- Ki [2]: < 0.01 µM
- Ki(h-OT)/Ki(h-V1b) [3]: +++ (>50)
- Ki(h-V1a)/Ki(h-V1b) [4]: +++ (>100)

Compound: CCOc1ncccc1C1(NC(=O)N2CCC(N3CCN(CC)CC3)CC2)C(=O)N(S(=O)(=O)c2ccccc2)c2ccc(C#N)cc21 (single isomer, unassigned) [Example 40B, (−)-N-[5-Cyano-3-(2-ethoxypyridin-3-yl)-2-oxo-1-(phenylsulphonyl)-2,3-dihydro-1H-indol-3-yl]-4-(4-ethylpiperazin-1-yl)piperidin-1-carboxamide]
- microsomal CLint at 0.5 μM [1]: 60 to 120 µL/min/mg
- Ki [2]: < 0.01 µM
- Ki(h-OT)/Ki(h-V1b) [3]: +++ (>50)
- Ki(h-V1a)/Ki(h-V1b) [4]: + (15-50)

Compound: CCOc1ncccc1[C@]1(NC(=O)N2CCN(C3CCN(C)CC3)CC2)C(=O)N(S(=O)(=O)c2ccc(OC)cc2OC)c2ccc(C#N)cc21 [Example 1B, (−)-N-[5-Cyano-1-[(2,4-dimethoxyphenyl)sulphonyl]-3-(2-ethoxypyridin-3-yl)-2-oxo-2,3-dihydro-1H-indol-3-yl]-4-(1-methylpiperidin-4-yl)piperazine-1-carboxamide]
- microsomal CLint at 0.5 μM [1]: < 60 µL/min/mg
- Ki [2]: < 0.01 µM
- Ki(h-OT)/Ki(h-V1b) [3]: +++ (>50)
- Ki(h-V1a)/Ki(h-V1b) [4]: +++ (>100)
